Measured values taken from paper PMC9953885 (Biosensors, 2023).
Structures can show the parent of a compound that is named as a salt.

Molecular target: T1, human pancreatic lipase (hPL) (Homo sapiens, UniProt P16233)
T1 construct: gene PNLIP
T1 sequence (P16233 17-465): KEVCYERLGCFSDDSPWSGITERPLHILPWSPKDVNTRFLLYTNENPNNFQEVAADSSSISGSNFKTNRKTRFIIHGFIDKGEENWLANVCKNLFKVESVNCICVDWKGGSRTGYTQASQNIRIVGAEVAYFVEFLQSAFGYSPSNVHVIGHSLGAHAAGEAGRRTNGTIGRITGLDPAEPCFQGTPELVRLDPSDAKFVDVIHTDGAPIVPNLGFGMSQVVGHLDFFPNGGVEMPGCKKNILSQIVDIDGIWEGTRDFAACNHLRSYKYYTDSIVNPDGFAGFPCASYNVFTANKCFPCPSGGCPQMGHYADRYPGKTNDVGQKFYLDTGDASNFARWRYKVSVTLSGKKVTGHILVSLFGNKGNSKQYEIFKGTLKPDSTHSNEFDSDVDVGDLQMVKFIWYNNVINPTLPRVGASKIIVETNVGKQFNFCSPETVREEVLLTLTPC
Details: 10 µM; inhibitor
Procedure: First, we evaluated the inhibitory effect of 94 natural products derived from herbs and 94 drugs on hPL. In our high-throughput screening system, 1 ug/mL hPL was used, and the final concentration of the 94 natural products derived from herbs and 94 drugs used was 10 μM. Other conditions were the same as in the selectivity experiments. […] RLE was incubated with hPL and various enzymes, such as hCES1A, hCES2A, CA, AchE, BchE, 5-HKE, lysozyme, trypsin, thrombin, α-CT, FAP, PREP, pepsin, α-amylase, plasmin, notum and hSA, in a 100 µL incubation mixture consisting of Tris-HCl (pH = 7.4, 25 mM), NaCl (150 mM), CaCl2 (1 mM) and porcine bile salt (0.1 mg/mL) at a concentration of 1.5 µg/mL. The reaction was initiated by adding RLE to the preincubated enzyme mixture at 37 °C, and metabolite formation was determined by measuring the fluorescence intensity of resorufin at 590 nm. In addition, several amino acids (IIe, His, Trp, Val, Leu, Tyr, Ala, Thr, Pro, Asp, Lys, Met, Cys, Ser, Phe, Gly, Glu and Gln), ions (Ni^2+, Ca^2+, Na^+, K^+, Cu^2+, Zn^2+, Mg^2+, NH4^+, Cu^+, Fe^2+ and CN^-) and GSH were measured. The concentration of these interfering factors was 5 μM. […] In this case, a visual high-throughput assay was established to screen hPL inhibitors, using RLE as a fluorogenic substrate in a 96-well microplate.

Question: COc1ccc(-c2cc(=O)c3c(O)cc(O)c(-c4cc(-c5cc(=O)c6c(O)cc(O)cc6o5)ccc4OC)c3o2)cc1 [Isoginkgetin] was tested. Which “% of control remaining” value did it give?
Answer: 54.78%

Question: Which “% of control remaining” value does the source give for CCOC(=O)C1=C(C)NC(C)=C(C(=O)OC)C1c1cccc(Cl)c1Cl (stereo not shown) [Felodipine] here?
Answer: 93.02%

Question: CN(C)C(=O)Oc1cc(OC(=O)N(C)C)cc(C(O)CNC(C)(C)C)c1 (stereo not shown) [Bambuterol hydrochloride] was tested. Which “% of control remaining” value did it give?
Answer: 93.23%

Question: With COc1ccc(-c2cc(=O)c3c(OC)c(OC)c(OC)c(OC)c3o2)cc1OC [Nobiletin] as the compound, how does the “% of control remaining” value read?
Answer: 80.44%

Question: COc1cc(O)cc2c1C(=O)C[C@@H](c1ccccc1)O2 [Alpinetin] was tested. Which “% of control remaining” value did it give?
Answer: 107.78%

Question: How did the “% of control remaining” value turn out when CC(C)=CCOc1c2occc2cc2ccc(=O)oc12 [Imperatorin] was run?
Answer: 75.61%

Question: For C=C1C(=O)O[C@@H]2C[C@@]3(C)CCCC(=C)[C@@H]3C[C@H]12 [Isoalantolactone], which “% of control remaining” value is on record?
Answer: 70.02%

Question: How did the “% of control remaining” value turn out when COC(=O)[C@H]1[C@H]2C[C@@H]3c4[nH]c5cc(OC)ccc5c4CCN3C[C@H]2C[C@@H](OC(=O)c2cc(OC)c(OC)c(OC)c2)[C@@H]1OC [Reserpine] was run?
Answer: 94.24%

Question: How did the “% of control remaining” value turn out when O=C1C([C@@H]2O[C@H](CO)[C@@H](O)[C@H](O)[C@H]2O)=C(O)/C(=C(O)/C=C/c2ccc(O)cc2)C(=O)C1(O)[C@@H]1O[C@H](CO)[C@@H](O)[C@H](O)[C@H]1O (stereo partly shown) [Hydroxysafflor yellow A] was run?
Answer: 76.59%

Question: With NC(=O)N1c2ccccc2C[C@H](O)c2ccccc21 [Eslicarbazepine] as the compound, how does the “% of control remaining” value read?
Answer: 103.44%

Question: Which “% of control remaining” value does the source give for COc1ccc2cc([C@H](C)C(=O)O)ccc2c1 [Naproxen] here?
Answer: 116.02%

Question: Which “% of control remaining” value does the source give for O=C(CCc1ccc(O)cc1)c1c(O)cc(O)cc1O [Phloretin] here?
Answer: 81.23%

Question: For O=c1c(O)c(-c2ccc(O)cc2)oc2c(O)c(O)cc(O)c12 [Herbacetin], which “% of control remaining” value is on record?
Answer: 83.59%

Question: How did the “% of control remaining” value turn out when COc1ccc(CCC(=O)c2ccc(O)cc2)c(OC)c1 [Loureirin A] was run?
Answer: 67.52%

Question: COc1c(OC)c2occc2c2oc(=O)ccc12 [Pimpinellin] was tested. Which “% of control remaining” value did it give?
Answer: 61.25%

Question: How did the “% of control remaining” value turn out when C[C@]12C=CC(=O)C=C1CC[C@@H]1[C@@H]2[C@@H](O)C[C@@]2(C)[C@H]1CC[C@]2(O)C(=O)CO [Prednisolone] was run?
Answer: 82.34%

Question: With CN/C(=N\CCSCc1nc[nH]c1C)NC#N [Cimetidine] as the compound, how does the “% of control remaining” value read?
Answer: 111.11%

Question: How did the “% of control remaining” value turn out when NCCc1ccc(O)c(O)c1 [3-Hydroxytyramine hydrochloride] was run?
Answer: 86.11%

Question: Which “% of control remaining” value does the source give for CCc1cc(C(N)=S)ccn1 [Ethionamide] here?
Answer: 91.71%

Question: With CC1=C(O)C(=O)C=C2C1=CC=C1[C@@]2(C)CC[C@@]2(C)[C@@H]3C[C@](C)(C(=O)O)CC[C@]3(C)CC[C@]12C [Celastrol] as the compound, how does the “% of control remaining” value read?
Answer: 84.16%

Question: With C[C@@H](Oc1cc(-c2cnn(C3CCNCC3)c2)cnc1N)c1c(Cl)ccc(F)c1Cl [Crizotinib] as the compound, how does the “% of control remaining” value read?
Answer: 85.14%

Question: For COc1c2ccoc2cc2oc(=O)ccc12 [Bergapten], which “% of control remaining” value is on record?
Answer: 54.11%

Question: For O=c1c(-c2ccc(O)cc2)coc2cc(O)cc(O)c12 [Genistein], which “% of control remaining” value is on record?
Answer: 106.48%

Question: With C[C@@H]1C(=O)O[C@H]2[C@H](O)[C@@]34[C@H]5C[C@@H](C(C)(C)C)[C@]36[C@@H](OC(=O)[C@@H]6O)O[C@@]4(C(=O)O5)[C@@]12O [Ginkgolide B] as the compound, how does the “% of control remaining” value read?
Answer: 120.07%

Question: Which “% of control remaining” value does the source give for CC(C)Cc1ccc(C(C)C(=O)O)cc1 (stereo not shown) [Ibuprofen] here?
Answer: 103.68%

Question: How did the “% of control remaining” value turn out when CC(C)c1nc(CN(C)C(=O)N[C@H](C(=O)N[C@@H](Cc2ccccc2)C[C@H](O)[C@H](Cc2ccccc2)NC(=O)OCc2cncs2)C(C)C)cs1 [Ritonavir] was run?
Answer: 97.04%

Question: How did the “% of control remaining” value turn out when COc1ccc2c(c1)[C@]13CCCC[C@@H]1[C@H](C2)N(C)CC3 [Dextromethorphan] was run?
Answer: 89.61%

Question: With C[C@H]1O[C@@H](O[C@H]2[C@@H](O)C[C@H](O[C@H]3[C@@H](O)C[C@H](O[C@H]4CC[C@@]5(C)[C@H](CC[C@@H]6[C@@H]5C[C@@H](O)[C@]5(C)[C@@H](C7=CC(=O)OC7)CC[C@]65O)C4)O[C@@H]3C)O[C@@H]2C)C[C@H](O)[C@@H]1O [Digoxin] as the compound, how does the “% of control remaining” value read?
Answer: 99.51%
